Legend:
[1] = test system: MYC expression; conditions: human breast cancer cell line; cited from earlier work
[2] = test system: MYC G4 flanking variants 5′-NNGGGTGGGGAGGGTGGGNN-3′; assay: G4 microarray competition with Cy5-PDS, flanking (tail) variants; design: species or system human; conditions: from reduction of Cy5-PDS binding in the presence of competitor
From the text: Whether the microarray platform could be used to reveal the G4-binding specificity of unlabeled molecules via a competition with Cy5-PDS binding was explored. Three example molecules, unlabeled PDS, TMPyP4 (a planar molecule that nonspecifically binds G4 structures^14), and DC-34 (a molecule that selectively binds the MYC G4^15) were examined. […] The binding of unlabeled DC-34 was examined (FIG. 4). There appear to be no features that are better-bound in the presence of DC-34. […] This is consistent with the observation that DC-34 binds the top and bottom surfaces of the G4 and makes specific contacts with purines in the tail sequences.^15 The general properties of features in which DC-34 reduced binding of Cy5-PDS (ratio of PDS/PDS+DC-34) were also examined. […]
DNA Microarray Binding Experiments DNA microarray experiments were performed and analyzed as described previously. […]
(§1) Data Processing and Analysis Molecule-bound microarrays were scanned with an Agilent G5761A SureScan Dx Microarray Scanner System to detect Cy5 signal at two laser settings (30 and 100 PMT). Spot intensities from microarray images were extracted using Agilent Feature Extraction Software and are reported as raw fluorescence intensities. […]

[3] = test system: parallel-stranded MYC_14/23T, MYC1234 and VEGF G4s; assay: 1D 1H NMR titration with parallel G4s; assay type: binding, human
From the text: (§2) The binding selectivity of BMVC to G4 structures and flanking sequences was confirmed by NMR titration experiments of BMVC to different G4 sequences, including parallel-stranded MYC_14/23T G4 and its 5′- and 3′-flanking variants, VEGF and MYC1234 G4s, basket-type human telomeric G4 (wtTel22 in Na+), and hybrid type human telomeric G4 (Tel26 in K+) (FIG. 12). BMVC binds best to the MYC_14/23T G4, as indicated by well-resolved imino proton peaks for BMVC complexes (FIG. 12, panel a). […] In contrast, the 3′-end binding of BMVC is sensitive to the mutations at the 3′-flanking sequence, with a clear preference for the 3′-flanking T. In addition, BMVC prefers at least two flanking bases for a specific binding.
(§3) G4 DNA oligonucleotides were synthesized using β-cyanoethylphosphoramidite solid-phase chemistry (Applied Biosystem Expedite 8909), as described previously. NMR experiments were performed on a Bruker AV-III-500-HD equipped with a BBFO Z-gradient cryoprobe. DNA samples were heated to 95° C. for 5 min, then cooled slowly for G4 formation. For the 1D 1H NMR experiments, samples contained 100-250 μM DNA in an appropriate buffer solution with 10% D2O for the lock. The titrations were performed by adding increasing amounts of the compounds to the DNA samples in solution.

[4] = test system: PDGF-A_Pu48, MYB, Bcl-2_P1G4 and Bcl2_55G G4 sequences; assay: G4 microarray competition with Cy5-PDS, other oncogene promoter G4s; assay type: binding, human
Experimental: Custom G4 microarrays have been designed that contain a total of 19,249 G4 DNA sequences [31, the entirety of disclosure of which, including the supplemental information, is incorporated herein by reference]. The G4 microarrays were created by covalently attaching thousands of unique G4-forming DNA 60-mers to a glass surface. Pyridostatin (PDS) is a known G4-interactive compound. […] To test the binding selectivity of BMVC, competition experiments using custom G4 microarrays were performed. The addition of potassium-containing solution to G4-forming oligonucleotides induced G4 formation. Subsequently, the microarrays were incubated with 1 μM Cy5-PDS in the absence or presence of 1 μM, 3 μM, or 10 μM of the unlabeled BMVC molecule. After washing to remove the unbound Cy5-PDS and BMVC, the fluorescence intensities of Cy5-PDS bound to DNA oligonucleotides were detected using a fluorescence scanner. The binding selectivity of BMVC to different G4 structures was assessed by measuring the relative fluorescence intensity reduction of Cy5-PDS as BMVC concentration increased.
To determine the G4-binding selectivity of BMVC, the BMVC binding to known G4 structures was examined, including 7 well-studied MYC promoter G4 sequences, 15 other oncogene promoter G4 sequences, and 3 human telomeric G4 sequences (TABLE 4). BMVC competes with the binding of Cy5-PDS to most G4 sequences in a dose-dependent manner as indicated by reduced fluorescence intensities (FIG. 8a).
DNA Microarray Binding Experiments DNA microarray experiments were performed and analyzed as described previously. Microarrays were preincubated with a pH 7.4 phosphate buffer solution with 100 mM potassium for 1 h at room temperature to induce G4 formation. […]
as §1

[5] = test system: basket-type (wtTel22 in Na+) and hybrid-type (Tel26 in K+) human telomeric G4s; assay: 1D 1H NMR titration with telomeric G4s; assay type: binding
From the text: as §2, §3

C[n+]1ccc(/C=C/c2ccc3[nH]c4ccc(/C=C/c5cc[n+](C)cc5)cc4c3c2)cc1.[I-].[I-] [BMVC, 3,6-Bis(1-methyl-4-vinylpyridinium) carbazole diiodide]
effect on MYC expression [1]: represses MYC expression
flanking sequence preference of competitor [2]: strongly prefers the MYC G4 with the 3′-flanking T
binding to MYC1234 and VEGF G4 by NMR titration ([3]; other parallel G4s): bind well
binding to MYC_14/23T G4 by NMR titration ([3]; well-resolved imino proton peaks, 95 mM K+, pH 7, 25° C.): binds best
binding to Bcl2_55G ([4]; competition with Cy5-PDS): good binding
binding to Bcl-2_P1G4 ([4]; competition with Cy5-PDS, compared with Bcl2_55G): markedly weaker
binding to PDGF-A_Pu48 and MYB sequences relative to Cy5-PDS ([4]; equimolar competition): much weaker
binding to basket-type or hybrid-type human telomeric G4s by NMR titration [5]: did not show specific binding
